Measured values published in publication PMC7156458, “Synthetic biology based construction of biological activity-related library of fungal decalin-containing diterpenoid pyrones” (Nature Communications, 2020).
Like-named read-outs stand apart in the source and are kept apart here.

What was measured:
Assay type in all cases: cell-based
DL1 cells = assay: cytotoxicity in Drosophila DL1 cells; conditions: DL1 cells; for % viability, viability 1: replicate 1, relative to DMSO 1%; for % viability, viability 2: replicate 2, relative to DMSO 1%; for IC50: cytotoxicity
Procedure: (§1) We screened the DDPs on the Drosophila assay system for cytotoxicity, inhibitory activity of innate immune signalling and insecticidal activity. The cytotoxicity of the DDPs was evaluated using two cell lines, embryonic macrophage-derived DL1 cells[58]–[60] and larval blood cell-derived l(2)mbn cells, and their IC50 values are listed in Supplementary Table 23.

[1] = system: human immunodeficiency virus-1 (HIV-1); assay: anti-HIV MAGI assay; conditions: anti-HIV
Description: We examined the inhibitory activities of DDPs against various species of bacteria (both gram-negative and gram-positive bacteria), fungi and viruses. […] In contrast, preliminary screening of the DDPs for anti-viral agents with hepatitis B virus (HBV), measles virus (MV), Epstein-Barr virus (EBV), herpes simplex virus (HSV) and human immunodeficiency virus-1 (HIV-1) indicated their selective inhibition of HIV.

l(2)mbn cells = assay: cytotoxicity in Drosophila l(2)mbn cells; conditions: for Luminescence Raw1: replicate 1; for % viability, viability 1: replicate 1, relative to DMSO 1%; for Luminescence Raw2: replicate 2; for % viability, viability 2: replicate 2, relative to DMSO 1%; for IC50: cytotoxicity
Procedure: as §1

[2] = cytotoxicity in Drosophila DL1 cells; conditions: Drosophila, DL1 cells (embryonic macrophage-derived), DL1 cells
Procedure: as §1

[3] = cytotoxicity in Drosophila l(2)mbn cells; conditions: Drosophila, l(2)mbn cells (larval blood cell-derived)
Procedure: as §1

[4] = average of two replicates, read-out: IC50 Average
[5] = replicate 1, read-out: IC50 (1)
[6] = replicate 2, read-out: IC50 (2)
[7] = replicate 1, relative to DMSO 1%, read-out: % viability, viability 1
[8] = replicate 2, relative to DMSO 1%, read-out: % viability, viability 2

SMILES: C=C1CCC2C(C)(CCC=C(C)C)C(O)CCC2(C)C1Cc1c(O)c(C)c(C)oc1=O (stereo not drawn) [Compound 4]
- Luminescence Raw1 (DL1 cells; 0.04 µM, replicate 1): 2757856
- % viability, viability 1 (DL1 cells; 0.04 µM): 201.087%
- Luminescence Raw2 (DL1 cells; 0.04 µM, replicate 2): 3026942
- % viability, viability 2 (DL1 cells; 0.04 µM): 220.707%
- Luminescence Raw1 (DL1 cells; 0.2 µM, replicate 1): 2720705
- % viability, viability 1 (DL1 cells; 0.2 µM): 198.378%
- Luminescence Raw2 (DL1 cells; 0.2 µM, replicate 2): 3168342
- % viability, viability 2 (DL1 cells; 0.2 µM): 231.017%
- Luminescence Raw1 (DL1 cells; 1 µM, replicate 1): 2448745
- % viability, viability 1 (DL1 cells; 1 µM): 178.548%
- Luminescence Raw2 (DL1 cells; 1 µM, replicate 2): 2704113
- % viability, viability 2 (DL1 cells; 1 µM): 197.168%
- Luminescence Raw1 (DL1 cells; 4 µM, replicate 1): 345570
- % viability, viability 1 (DL1 cells; 4 µM): 25.197%
- Luminescence Raw2 (DL1 cells; 4 µM, replicate 2): 345209
- % viability, viability 2 (DL1 cells; 4 µM): 25.1707%
- Luminescence Raw1 (DL1 cells; 10 µM, replicate 1): 299777
- % viability, viability 1 (DL1 cells; 10 µM): 21.858%
- Luminescence Raw2 (DL1 cells; 10 µM, replicate 2): 341603
- % viability, viability 2 (DL1 cells; 10 µM): 24.9077%
- Luminescence Raw1 (DL1 cells; 20 µM, replicate 1): 287878
- % viability, viability 1 (DL1 cells; 20 µM): 20.9904%
- Luminescence Raw2 (DL1 cells; 20 µM, replicate 2): 302301
- % viability, viability 2 (DL1 cells; 20 µM): 22.0421%
- IC50 (DL1 cells; [4]): 1540 nM
- IC50 (DL1 cells; average±SEM, read-out: IC50): 1540 ± 80 nM
- IC50 (DL1 cells; [5]): 1610 nM
- IC50 (DL1 cells; [6]): 1460 nM
- EC50 ([1]; Human immunodeficiency virus 1, MAGI, average of numeric determinations, read-out: Avg. EC50): 592 nM
- Luminescence Raw1 (l(2)mbn cells; 0.04 µM): 5839335
- % viability, viability 1 (l(2)mbn cells; 0.04 µM): 92.9944%
- Luminescence Raw2 (l(2)mbn cells; 0.04 µM): 5201728
- % viability, viability 2 (l(2)mbn cells; 0.04 µM): 82.8402%
- Luminescence Raw1 (l(2)mbn cells; 0.2 µM): 5720253
- % viability, viability 1 (l(2)mbn cells; 0.2 µM): 91.0979%
- Luminescence Raw2 (l(2)mbn cells; 0.2 µM): 5444207
- % viability, viability 2 (l(2)mbn cells; 0.2 µM): 86.7018%
- Luminescence Raw1 (l(2)mbn cells; 1 µM): 5427969
- % viability, viability 1 (l(2)mbn cells; 1 µM): 86.4432%
- Luminescence Raw2 (l(2)mbn cells; 1 µM): 5886607
- % viability, viability 2 (l(2)mbn cells; 1 µM): 93.7472%
- Luminescence Raw1 (l(2)mbn cells; 4 µM): 5612720
- % viability, viability 1 (l(2)mbn cells; 4 µM): 89.3854%
- Luminescence Raw2 (l(2)mbn cells; 4 µM): 6637959
- % viability, viability 2 (l(2)mbn cells; 4 µM): 105.713%
- Luminescence Raw1 (l(2)mbn cells; 10 µM): 900951
- % viability, viability 1 (l(2)mbn cells; 10 µM): 14.3481%
- Luminescence Raw2 (l(2)mbn cells; 10 µM): 1318179
- % viability, viability 2 (l(2)mbn cells; 10 µM): 20.9927%
- Luminescence Raw1 (l(2)mbn cells; 20 µM): 296971
- % viability, viability 1 (l(2)mbn cells; 20 µM): 4.729%
- Luminescence Raw2 (l(2)mbn cells; 20 µM): 325456
- % viability, viability 2 (l(2)mbn cells; 20 µM): 5.183%
- IC50 (l(2)mbn cells; [4]): 6440 nM
- IC50 (l(2)mbn cells; average±SEM, read-out: IC50): 6440 ± 940 nM
- IC50 (l(2)mbn cells; [5]): 5500 nM
- IC50 (l(2)mbn cells; [6]): 7390 nM

SMILES: C=C1CCC2C(C)(CCC=C(C)C)C(O)CCC2(C)C1Cc1c(O)c(C)c(C)oc1=O (stereo not drawn) [Compound 9, higginsianin B]
- Luminescence Raw1 (DL1 cells; 0.04 µM, replicate 1): 3124696
- % viability, viability 1 (DL1 cells; 0.04 µM): 227.835%
- Luminescence Raw2 (DL1 cells; 0.04 µM, replicate 2): 2770120
- Luminescence Raw1 (DL1 cells; 0.2 µM, replicate 1): 2602758
- Luminescence Raw2 (DL1 cells; 0.2 µM, replicate 2): 2435040
- % viability, viability 2 (DL1 cells; 0.2 µM): 177.549%
- Luminescence Raw1 (DL1 cells; 1 µM, replicate 1): 371891
- % viability, viability 1 (DL1 cells; 1 µM): 27.1162%
- Luminescence Raw2 (DL1 cells; 1 µM, replicate 2): 463117
- % viability, viability 2 (DL1 cells; 1 µM): 33.7678%
- Luminescence Raw1 (DL1 cells; 4 µM, replicate 1): 286075
- Luminescence Raw2 (DL1 cells; 4 µM, replicate 2): 310594
- Luminescence Raw1 (DL1 cells; 10 µM, replicate 1): 279225
- Luminescence Raw2 (DL1 cells; 10 µM, replicate 2): 288960
- Luminescence Raw1 (DL1 cells; 20 µM, replicate 1): 263360
- Luminescence Raw2 (DL1 cells; 20 µM, replicate 2): 246413
- IC50 (DL1 cells; [4]): 361 nM
- IC50 (DL1 cells; average±SEM, read-out: IC50): 360 ± 30 nM
- IC50 (DL1 cells; [5]): 328 nM
- IC50 (DL1 cells; [6]): 394 nM
- viability at 0.04 µM ([2]; 0.04 µM, replicate 2, relative to DMSO 1%, read-out: % viability, viability 2): 202%
- viability at 0.2 µM ([2]; 0.2 µM, replicate 1, relative to DMSO 1%, read-out: % viability, viability 1): 190%
- viability at 4 µM [2, 7]: 20.9%
- viability at 4 µM [2, 8]: 22.6%
- viability at 10 µM [2, 7]: 20.4%
- viability at 10 µM [2, 8]: 21.1%
- viability at 20 µM [2, 7]: 19.2%
- viability at 20 µM [2, 8]: 18%
- EC50 ([1]; single determinations, read-out: Efficacy (EC50)): > 10000 nM
- Luminescence Raw1 (l(2)mbn cells; 0.04 µM): 5700406
- Luminescence Raw2 (l(2)mbn cells; 0.04 µM): 5730357
- Luminescence Raw1 (l(2)mbn cells; 0.2 µM): 5787371
- Luminescence Raw2 (l(2)mbn cells; 0.2 µM): 5991618
- Luminescence Raw1 (l(2)mbn cells; 1 µM): 5334874
- Luminescence Raw2 (l(2)mbn cells; 1 µM): 5292296
- Luminescence Raw1 (l(2)mbn cells; 4 µM): 375575
- % viability, viability 1 (l(2)mbn cells; 4 µM): 5.981%
- Luminescence Raw2 (l(2)mbn cells; 4 µM): 295889
- % viability, viability 2 (l(2)mbn cells; 4 µM): 4.712%
- Luminescence Raw1 (l(2)mbn cells; 10 µM): 141567
- % viability, viability 1 (l(2)mbn cells; 10 µM): 2.255%
- Luminescence Raw2 (l(2)mbn cells; 10 µM): 144091
- % viability, viability 2 (l(2)mbn cells; 10 µM): 2.295%
- Luminescence Raw1 (l(2)mbn cells; 20 µM): 140485
- % viability, viability 1 (l(2)mbn cells; 20 µM): 2.2373%
- Luminescence Raw2 (l(2)mbn cells; 20 µM): 188801
- IC50 (l(2)mbn cells; [4]): 1540 nM
- IC50 (l(2)mbn cells; average±SEM, read-out: IC50): 1540 ± 10 nM
- IC50 (l(2)mbn cells; [5]): 1540 nM
- IC50 (l(2)mbn cells; [6]): 1540 nM
- viability at 0.04 µM [3, 7]: 90.8%
- viability at 0.04 µM [3, 8]: 91.3%
- viability at 0.2 µM [3, 7]: 92.2%
- viability at 0.2 µM [3, 8]: 95.4%
- viability at 1 µM [3, 7]: 85%
- viability at 1 µM [3, 8]: 84.3%
- viability at 20 µM ([3]; 20 µM, replicate 2, relative to DMSO 1%, read-out: % viability, viability 2): 3.01%
